Values of other authors as cited in US20260256955A1, “LIQUID COMPOSITION OF COMPOUND I, PREPARATION METHOD THEREFOR, AND APPLICATION THEREOF” (BEIJING SINOTAU PHARMACEUTICAL TECHNOLOGY CO., LTD, priority 2022, published 2026).

Details: animals

**Q.** For `CC(C)(C)n1ncc(OCc2cccc(Cn3cc(COCCOCC[18F])nn3)c2)c(Cl)c1=O` [Compound I, 2-tert-butyl-4-chloro-5-((3-((4-((2-(2-fluoro[^18F]ethoxy)ethoxy)methyl)-1H-1,2,3-triazol-1-yl)methyl)benzyl)oxy)pyridazin-3(2H)-one], which cardiac uptake (15 minutes post-injection) is on record?
**A.** high

**Q.** And the liver uptake (15 minutes post-injection)?
**A.** low

**Q.** What about the heart-to-liver ratio (after 60 minutes) of the same compound?
**A.** favorable
